Laboratory results taken from PMC3611663 (American heart journal, 2011).
Like-named read-outs stand apart in the source and are kept apart here. Bridge positions count the residues as written; N and C are the ends. Square brackets hold non-standard residues; d marks the D form. Peptide text beside a SMILES is read from it. hArg = N=C(N)NCCCC[C@H](N)C(=O)O; Mpa = O=C(O)CCS

Tests used:
[1] = type: in vivo, human
GP IIb/IIIa receptor = conditions: PRIDE study; cited from earlier work

N=C(N)NCCCC[C@@H]1NC(=O)CCSSC[C@@H](C(N)=O)NC(=O)[C@@H]2CCCN2C(=O)[C@H](Cc2c[nH]c3ccccc23)NC(=O)[C@H](CC(=O)O)NC(=O)CNC1=O [Eptifibatide] ([Mpa][hArg]GDWPC-NH2; disulfide 1-7 (inferred); C-terminus assumed)
Slope of plasma concentration versus body weight (ANCOVA regression) ([1]; ABW dosing): 20.6
Patients with plasma Eptifibatide >1600 ng/mL ([1]; ABW-based dosing (N=22)): 14 (64) no. (%)
Patients with plasma Eptifibatide ≤1600 ng/mL ([1]; ABW-based dosing (N=22)): 8 (36) no. (%)
Slope of plasma concentration versus body weight (ANCOVA regression) ([1]; IBW dosing): 6.9
Patients with plasma Eptifibatide >1600 ng/mL ([1]; IBW-based dosing (N=20)): 2 (10) no. (%)
Patients with plasma Eptifibatide ≤1600 ng/mL ([1]; IBW-based dosing (N=20)): 18 (90) no. (%)
Slope of plasma concentration versus body weight (ANCOVA regression) ([1]; standard dosing): −6.4
Patients with plasma Eptifibatide >1600 ng/mL ([1]; standard dosing (N=19)): 10 (53) no. (%)
Patients with plasma Eptifibatide ≤1600 ng/mL ([1]; standard dosing (N=19)): 9 (47) no. (%)
Plasma concentration necessary to achieve >80% occupancy of the GP IIb/IIIa receptor (GP IIb/IIIa receptor): approximately 1600 ng/mL
